Laboratory results published in ChEMBL document CHEMBL5291721, “A preclinical secondary pharmacology resource illuminates target-adverse drug reaction associations of marketed drugs” (Nat Commun, 2023).

What was measured:
[1] = target: T1, Thromboxane A2 receptor (Homo sapiens, UniProt P21731); type: functional, cell-based
T1 sequence (P21731 whole entry): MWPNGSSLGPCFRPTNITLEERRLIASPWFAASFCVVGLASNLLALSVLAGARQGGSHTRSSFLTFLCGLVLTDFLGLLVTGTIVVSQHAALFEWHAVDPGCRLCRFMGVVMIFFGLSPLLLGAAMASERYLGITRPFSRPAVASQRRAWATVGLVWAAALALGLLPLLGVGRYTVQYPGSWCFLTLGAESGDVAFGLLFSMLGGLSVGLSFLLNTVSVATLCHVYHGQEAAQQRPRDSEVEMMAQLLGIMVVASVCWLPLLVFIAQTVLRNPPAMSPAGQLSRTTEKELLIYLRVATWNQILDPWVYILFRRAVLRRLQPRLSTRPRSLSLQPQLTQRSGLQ

[2] = target: T2, Glucocorticoid receptor (Homo sapiens, UniProt P04150); type: functional
T2 sequence (P04150 whole entry): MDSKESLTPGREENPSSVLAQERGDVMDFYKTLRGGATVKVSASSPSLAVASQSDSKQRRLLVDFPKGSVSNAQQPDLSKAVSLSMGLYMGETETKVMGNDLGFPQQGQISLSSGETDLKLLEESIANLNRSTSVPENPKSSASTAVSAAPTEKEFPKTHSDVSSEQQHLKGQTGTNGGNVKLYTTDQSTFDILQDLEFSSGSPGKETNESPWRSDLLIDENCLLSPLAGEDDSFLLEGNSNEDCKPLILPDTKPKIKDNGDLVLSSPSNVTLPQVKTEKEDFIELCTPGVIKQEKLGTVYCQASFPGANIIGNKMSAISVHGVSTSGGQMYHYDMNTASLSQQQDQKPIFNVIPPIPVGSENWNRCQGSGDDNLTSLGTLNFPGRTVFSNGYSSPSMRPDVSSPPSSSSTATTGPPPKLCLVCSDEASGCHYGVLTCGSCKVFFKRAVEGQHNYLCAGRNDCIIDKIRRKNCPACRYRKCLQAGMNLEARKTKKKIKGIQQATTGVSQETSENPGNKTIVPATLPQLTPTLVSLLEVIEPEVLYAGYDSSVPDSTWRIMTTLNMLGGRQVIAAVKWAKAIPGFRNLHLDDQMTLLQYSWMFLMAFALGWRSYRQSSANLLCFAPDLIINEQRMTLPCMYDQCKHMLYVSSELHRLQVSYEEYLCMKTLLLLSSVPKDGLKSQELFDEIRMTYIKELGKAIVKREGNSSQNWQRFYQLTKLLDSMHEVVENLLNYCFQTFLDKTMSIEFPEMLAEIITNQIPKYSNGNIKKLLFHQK

[3] = target: T3, Peroxisome proliferator-activated receptor gamma (Homo sapiens, UniProt P37231); type: functional
T3 sequence (P37231 whole entry): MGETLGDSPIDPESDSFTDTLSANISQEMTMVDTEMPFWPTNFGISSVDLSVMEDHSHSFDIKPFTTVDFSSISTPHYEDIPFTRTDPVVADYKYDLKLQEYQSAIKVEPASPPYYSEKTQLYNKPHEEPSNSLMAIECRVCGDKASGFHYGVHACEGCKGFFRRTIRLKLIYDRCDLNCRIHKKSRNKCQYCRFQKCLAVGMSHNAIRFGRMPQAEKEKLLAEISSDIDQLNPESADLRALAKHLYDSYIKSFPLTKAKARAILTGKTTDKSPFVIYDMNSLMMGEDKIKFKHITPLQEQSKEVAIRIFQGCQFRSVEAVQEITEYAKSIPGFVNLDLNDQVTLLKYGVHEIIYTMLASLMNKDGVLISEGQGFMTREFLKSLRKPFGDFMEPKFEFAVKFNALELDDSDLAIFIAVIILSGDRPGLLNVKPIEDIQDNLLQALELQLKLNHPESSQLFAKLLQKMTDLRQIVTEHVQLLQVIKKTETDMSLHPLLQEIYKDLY

[4] = target: Epidermal growth factor receptor (Homo sapiens, UniProt P00533); type: functional
[5] = target: Glucagon receptor (Homo sapiens, UniProt P47871)
[6] = target: Beta-2 adrenergic receptor (Homo sapiens, UniProt P07550)
[7] = target: T4, Alpha-2A adrenergic receptor (Homo sapiens, UniProt P08913)
T4 sequence (P08913 whole entry): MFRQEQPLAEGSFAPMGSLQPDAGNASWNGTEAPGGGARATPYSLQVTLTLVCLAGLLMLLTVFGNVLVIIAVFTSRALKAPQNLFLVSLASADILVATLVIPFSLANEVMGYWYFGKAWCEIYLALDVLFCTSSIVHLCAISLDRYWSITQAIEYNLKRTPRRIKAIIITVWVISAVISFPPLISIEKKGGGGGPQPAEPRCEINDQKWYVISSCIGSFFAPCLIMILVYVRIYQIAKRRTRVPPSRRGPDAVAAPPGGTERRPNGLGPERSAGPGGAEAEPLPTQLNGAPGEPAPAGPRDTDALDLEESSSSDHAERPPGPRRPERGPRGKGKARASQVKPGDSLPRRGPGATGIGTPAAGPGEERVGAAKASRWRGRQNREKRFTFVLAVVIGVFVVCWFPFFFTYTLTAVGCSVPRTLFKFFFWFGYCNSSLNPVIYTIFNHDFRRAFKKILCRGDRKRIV

[8] = target: T5, Corticotropin-releasing factor receptor 1 (Homo sapiens, UniProt P34998)
T5 sequence (P34998 whole entry): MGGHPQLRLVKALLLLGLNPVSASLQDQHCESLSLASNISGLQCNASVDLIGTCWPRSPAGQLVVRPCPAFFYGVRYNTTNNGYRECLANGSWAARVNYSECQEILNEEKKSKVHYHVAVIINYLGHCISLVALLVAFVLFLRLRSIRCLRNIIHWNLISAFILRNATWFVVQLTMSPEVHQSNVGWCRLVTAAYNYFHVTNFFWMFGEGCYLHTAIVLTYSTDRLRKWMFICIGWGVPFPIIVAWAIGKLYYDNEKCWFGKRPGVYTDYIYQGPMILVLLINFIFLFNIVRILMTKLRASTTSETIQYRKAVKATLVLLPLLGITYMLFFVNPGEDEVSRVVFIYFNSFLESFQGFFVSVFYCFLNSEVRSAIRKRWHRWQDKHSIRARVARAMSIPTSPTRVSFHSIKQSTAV

[9] = target: 5-hydroxytryptamine receptor 2B (Homo sapiens, UniProt P41595)
Further: assay procedure not described here.

Epidermal growth factor receptor, sequence (P00533 whole entry): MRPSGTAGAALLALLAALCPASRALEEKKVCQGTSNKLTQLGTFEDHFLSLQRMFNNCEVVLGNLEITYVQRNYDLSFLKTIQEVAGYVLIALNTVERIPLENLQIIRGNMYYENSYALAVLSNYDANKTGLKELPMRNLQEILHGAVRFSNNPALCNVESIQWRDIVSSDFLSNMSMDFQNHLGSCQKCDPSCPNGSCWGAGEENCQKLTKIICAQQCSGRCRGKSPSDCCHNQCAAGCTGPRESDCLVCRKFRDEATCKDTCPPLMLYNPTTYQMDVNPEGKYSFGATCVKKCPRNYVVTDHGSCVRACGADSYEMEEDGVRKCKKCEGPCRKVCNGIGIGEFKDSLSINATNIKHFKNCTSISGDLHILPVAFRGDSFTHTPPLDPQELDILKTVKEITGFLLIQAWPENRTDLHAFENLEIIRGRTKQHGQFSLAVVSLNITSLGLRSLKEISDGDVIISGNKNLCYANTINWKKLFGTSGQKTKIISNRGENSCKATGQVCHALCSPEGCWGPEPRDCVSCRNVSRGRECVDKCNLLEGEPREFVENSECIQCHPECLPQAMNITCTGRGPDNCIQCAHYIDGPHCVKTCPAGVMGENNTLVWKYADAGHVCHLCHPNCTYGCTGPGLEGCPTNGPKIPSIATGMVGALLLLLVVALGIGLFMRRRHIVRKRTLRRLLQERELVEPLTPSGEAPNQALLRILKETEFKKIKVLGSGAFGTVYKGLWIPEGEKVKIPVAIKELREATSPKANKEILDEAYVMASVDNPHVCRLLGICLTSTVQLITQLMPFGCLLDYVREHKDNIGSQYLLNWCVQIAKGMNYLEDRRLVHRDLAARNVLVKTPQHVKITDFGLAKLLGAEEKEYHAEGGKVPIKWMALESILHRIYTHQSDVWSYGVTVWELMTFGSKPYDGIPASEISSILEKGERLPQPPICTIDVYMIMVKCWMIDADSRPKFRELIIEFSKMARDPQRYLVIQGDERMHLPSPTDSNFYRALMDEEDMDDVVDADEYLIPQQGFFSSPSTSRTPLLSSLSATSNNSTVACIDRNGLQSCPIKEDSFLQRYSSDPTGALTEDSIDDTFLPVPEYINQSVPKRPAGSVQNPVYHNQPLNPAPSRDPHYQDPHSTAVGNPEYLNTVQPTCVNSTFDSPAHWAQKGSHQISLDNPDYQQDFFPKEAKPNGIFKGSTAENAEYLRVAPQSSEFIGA
Glucagon receptor, sequence (P47871 whole entry): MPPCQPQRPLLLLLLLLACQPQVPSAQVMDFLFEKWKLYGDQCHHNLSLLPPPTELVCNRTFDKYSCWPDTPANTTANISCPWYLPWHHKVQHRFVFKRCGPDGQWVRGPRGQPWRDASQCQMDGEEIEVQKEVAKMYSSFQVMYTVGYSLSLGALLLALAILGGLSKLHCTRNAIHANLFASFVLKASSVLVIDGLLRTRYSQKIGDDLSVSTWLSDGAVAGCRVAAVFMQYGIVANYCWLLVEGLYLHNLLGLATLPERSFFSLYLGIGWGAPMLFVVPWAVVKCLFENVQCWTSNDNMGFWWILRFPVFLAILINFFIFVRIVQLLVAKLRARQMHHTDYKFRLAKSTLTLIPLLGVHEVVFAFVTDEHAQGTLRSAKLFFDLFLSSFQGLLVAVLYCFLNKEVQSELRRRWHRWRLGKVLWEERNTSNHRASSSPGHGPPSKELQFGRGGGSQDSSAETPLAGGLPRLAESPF
Beta-2 adrenergic receptor, sequence (P07550 whole entry): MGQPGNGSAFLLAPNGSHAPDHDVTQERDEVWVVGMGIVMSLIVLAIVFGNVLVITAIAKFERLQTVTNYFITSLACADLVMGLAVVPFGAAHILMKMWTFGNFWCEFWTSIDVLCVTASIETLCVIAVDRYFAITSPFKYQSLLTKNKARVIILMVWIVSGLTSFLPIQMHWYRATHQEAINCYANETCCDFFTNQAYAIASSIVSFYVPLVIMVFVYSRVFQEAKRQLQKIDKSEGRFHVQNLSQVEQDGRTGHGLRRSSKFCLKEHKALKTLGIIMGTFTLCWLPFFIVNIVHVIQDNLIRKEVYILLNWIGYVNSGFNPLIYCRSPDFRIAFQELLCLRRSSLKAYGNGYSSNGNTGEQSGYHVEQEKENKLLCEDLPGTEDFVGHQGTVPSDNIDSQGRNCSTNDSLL
5-hydroxytryptamine receptor 2B, sequence (P41595 whole entry): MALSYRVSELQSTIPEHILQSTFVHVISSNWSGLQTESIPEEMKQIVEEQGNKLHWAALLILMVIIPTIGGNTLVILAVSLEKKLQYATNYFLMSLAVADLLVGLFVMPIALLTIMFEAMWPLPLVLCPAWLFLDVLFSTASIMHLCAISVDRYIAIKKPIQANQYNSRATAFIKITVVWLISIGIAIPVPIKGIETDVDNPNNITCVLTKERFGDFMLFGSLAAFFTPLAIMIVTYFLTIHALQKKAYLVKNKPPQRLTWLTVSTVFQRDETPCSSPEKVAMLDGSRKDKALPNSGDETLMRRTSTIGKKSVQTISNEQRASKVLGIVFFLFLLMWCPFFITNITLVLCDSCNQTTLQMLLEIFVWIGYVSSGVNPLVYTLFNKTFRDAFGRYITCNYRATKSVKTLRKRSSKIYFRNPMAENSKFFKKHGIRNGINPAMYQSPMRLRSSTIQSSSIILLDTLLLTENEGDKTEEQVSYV

In the case of `CC(=N)N1CC[C@H](SC2=C(C(=O)O)N3C(=O)[C@H]([C@@H](C)O)[C@H]3C2)C1`, the AC50 [1] is reported as > 300 µM, the AC50 [2] is reported as > 300 µM and the AC50 [3] is reported as > 300 µM. The AC50 [4] was > 300 µM.

For `CCCN(CCC)CCc1cccc2c1CC(=O)N2` [ROPINIROLE], the AC50 [1] was > 30 µM, the AC50 [5] was > 30 µM and the AC50 [2] was > 30 µM. The AC50 [3] was > 30 µM, the AC50 [6] was > 10 µM and the AC50 [7] was 12 µM. For the same compound, the AC50 [8] was > 30 µM, the AC50 [9] was 27 µM and the AC50 [4] was > 30 µM.

In the case of `O=C1NC(=O)C(c2ccccc2)(c2ccccc2)N1` [PHENYTOIN], the AC50 [1] is reported as > 30 µM, the AC50 [5] is reported as > 30 µM and the AC50 [2] is reported as > 30 µM. For the same compound, the AC50 [3] was > 30 µM, the AC50 [6] was > 10 µM and the AC50 [8] was > 30 µM. The AC50 [4] was > 30 µM.

In the case of `C[C@H]1Oc2cc(cnc2N)-c2c(nn(C)c2C#N)CN(C)C(=O)c2ccc(F)cc21` [LORLATINIB], the AC50 [1] is reported as > 30 µM, the AC50 [2] is reported as > 30 µM and the AC50 [3] is reported as > 30 µM. The AC50 [4] was 2.9 µM.
